Source: US20250064945A1 (Arvinas Operations, Inc., priority 2021, published 2025)
Where a name gives a salt, the structure may show the parent alone.

Target: T1, BRM (Homo sapiens, UniProt P51531)
T1 construct: In-Cell Western Screen of BRM Degradation in SW1573 Cells; endogenous in cells; host or cells: SW1573 cells
Assay: Western blot / In-Cell Western screen of BRM degradation in SW1573 cells
Assay type: cell-based
Settings: overnight (18-20 hours) treatment; for Dmax: read-out: Dmax (%) (% degraded)
Method in brief: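 SW1573 cells treated overnight (18-20 hours) with compound at 0.1% final DMSO. BRM measured either by Western blot of RIPA lysates with alpha-tubulin control and chemiluminescent detection, or by In-Cell Western on fixed, permeabilized cells with LI-COR dual-channel read against alpha-tubulin; Dmax and DC50 derived.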

T1 sequence (P51531 whole entry): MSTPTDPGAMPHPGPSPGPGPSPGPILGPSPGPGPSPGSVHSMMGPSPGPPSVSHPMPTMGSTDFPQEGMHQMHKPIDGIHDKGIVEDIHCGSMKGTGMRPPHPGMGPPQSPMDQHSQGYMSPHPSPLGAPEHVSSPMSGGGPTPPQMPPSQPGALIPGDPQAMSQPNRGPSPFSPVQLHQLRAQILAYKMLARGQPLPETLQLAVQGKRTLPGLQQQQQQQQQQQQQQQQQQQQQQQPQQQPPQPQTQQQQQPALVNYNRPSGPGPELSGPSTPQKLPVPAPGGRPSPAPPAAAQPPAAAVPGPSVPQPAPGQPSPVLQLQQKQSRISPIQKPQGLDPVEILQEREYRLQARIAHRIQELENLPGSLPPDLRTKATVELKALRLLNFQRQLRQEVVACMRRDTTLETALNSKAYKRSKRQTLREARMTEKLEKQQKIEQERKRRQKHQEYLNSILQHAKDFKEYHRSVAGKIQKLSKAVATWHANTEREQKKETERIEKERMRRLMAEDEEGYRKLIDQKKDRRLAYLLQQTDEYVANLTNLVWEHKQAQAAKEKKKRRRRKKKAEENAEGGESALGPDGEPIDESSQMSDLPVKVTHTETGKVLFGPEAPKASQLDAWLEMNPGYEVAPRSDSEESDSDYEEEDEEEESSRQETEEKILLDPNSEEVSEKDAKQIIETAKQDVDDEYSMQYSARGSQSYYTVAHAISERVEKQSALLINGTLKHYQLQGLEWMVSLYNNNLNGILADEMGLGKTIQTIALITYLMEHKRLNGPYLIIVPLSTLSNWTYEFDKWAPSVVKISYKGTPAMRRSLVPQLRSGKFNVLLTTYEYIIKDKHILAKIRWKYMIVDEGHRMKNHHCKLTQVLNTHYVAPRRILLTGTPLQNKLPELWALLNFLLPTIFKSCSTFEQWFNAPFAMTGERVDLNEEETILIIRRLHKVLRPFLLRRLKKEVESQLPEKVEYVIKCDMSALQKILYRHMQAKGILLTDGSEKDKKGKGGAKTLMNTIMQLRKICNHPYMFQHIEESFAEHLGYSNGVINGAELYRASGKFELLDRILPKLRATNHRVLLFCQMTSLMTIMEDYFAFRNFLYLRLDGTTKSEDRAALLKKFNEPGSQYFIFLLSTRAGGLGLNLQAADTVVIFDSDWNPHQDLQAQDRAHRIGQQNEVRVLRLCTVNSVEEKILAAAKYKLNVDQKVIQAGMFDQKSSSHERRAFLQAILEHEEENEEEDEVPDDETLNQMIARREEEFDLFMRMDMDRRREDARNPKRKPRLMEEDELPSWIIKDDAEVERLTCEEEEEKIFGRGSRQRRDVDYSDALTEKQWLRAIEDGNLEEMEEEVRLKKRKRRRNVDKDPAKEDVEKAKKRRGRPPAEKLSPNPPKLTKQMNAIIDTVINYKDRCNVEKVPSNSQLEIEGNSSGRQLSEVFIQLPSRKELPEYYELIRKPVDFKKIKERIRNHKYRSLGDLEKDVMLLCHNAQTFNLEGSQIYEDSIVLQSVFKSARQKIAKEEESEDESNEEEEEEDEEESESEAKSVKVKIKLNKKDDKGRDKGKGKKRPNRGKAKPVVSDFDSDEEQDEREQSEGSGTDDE

Compound | DC50 | Dmax
Cc1ncsc1-c1ccc([C@H](C)NC(=O)[C@@H]2C[C@@H](O)CN2C(=O)[C@@H](c2cc(N3CCC(CN4CCC5(CC4)CC(N4CCO[C@@H](CN6CCOC7(CCN(c8cc(-c9ccccc9O)nnc8N)CC7)C6)C4)C5)CC3)no2)C(C)C)cc1 [Compound 26, (2S,4R)-1-[(2R)-2-{3-[4-({2-[(2S)-2-({9-[3-amino-6-(2-hydroxyphenyl)pyridazin-4-yl]-1-oxa-4,9-diazaspiro[5.5]undecan-4-yl}methyl)morpholin-4-yl]-7-azaspiro[3.5]nonan-7-yl}methyl)piperidin-1-yl]-1,2-oxazol-5-yl}-3-methylbutanoyl]-4-hydroxy-N-[(1S)-1-[4-(4-methyl-1,3-thiazol-5-yl)phenyl]ethyl]pyrrolidine-2-carboxamide] | < 2.5 nM | > 75%
Cc1ncsc1-c1ccc([C@H](C)NC(=O)[C@@H]2C[C@@H](O)CN2C(=O)[C@@H](c2cc(N3CCC(CN4CCC(O[C@H]5C[C@H](N6CCC(CN7CC8(C7)CN(c7cc(-c9ccccc9O)nnc7N)CCN8C)CC6)C5)CC4)CC3)no2)C(C)C)cc1 [Compound 27, (2S,4R)-4-hydroxy-N-[(1S)-1-[4-(4-methyl-1,3-thiazol-5-yl)phenyl]ethyl]-1-[(2R)-3-methyl-2-{3-[4-({4-[(1r,3r)-3-[4-({8-[3-amino-6-(2-hydroxyphenyl)pyridazin-4-yl]-5-methyl-2,5,8-triazaspiro[3.5]nonan-2-yl}methyl)piperidin-1-yl]cyclobutoxy]piperidin-1-yl}methyl)piperidin-1-yl]-1,2-oxazol-5-yl}butanoyl]pyrrolidine-2-carboxamide] | 2.5 to 10 nM | > 75%
Cc1ncsc1-c1ccc([C@H](C)NC(=O)[C@@H]2C[C@@H](O)CN2C(=O)[C@@H](c2cc(N3CCC(CN4CCC(O[C@H]5C[C@H](C#Cc6cn7cc(-c8ccccc8O)nc7nc6N)C5)CC4)CC3)no2)C(C)C)cc1 [Compound 28, (2S,4R)-4-hydroxy-N-[(1S)-1-[4-(4-methyl-1,3-thiazol-5-yl)phenyl]ethyl]-1-[(2R)-3-methyl-2-{3-[4-({4-[(1r,3r)-3-(2-[7-amino-2-(2-hydroxyphenyl)imidazo[1,2-a]pyrimidin-6-yl]ethynyl}cyclobutoxy]piperidin-1-yl}methyl)piperidin-1-yl]-1,2-oxazol-5-yl}butanoyl]pyrrolidine-2-carboxamide] | < 2.5 nM | > 75%
Cc1ncsc1-c1ccc([C@H](C)NC(=O)[C@@H]2C[C@@H](O)CN2C(=O)[C@@H](c2cc(N3CCC(CN4CCC(O[C@H]5C[C@H](OCC#Cc6cn7cc(-c8ccccc8O)nc7nc6N)C5)CC4)CC3)no2)C(C)C)cc1 [Compound 29] | < 2.5 nM | > 75%
Cc1ncsc1-c1ccc([C@H](C)NC(=O)[C@@H]2C[C@@H](O)CN2C(=O)[C@H](c2cc(OCCCC#Cc3cn4cc(-c5ccccc5O)nc4nc3N)no2)C(C)C)cc1 [Compound 30, (2S,4R)-1-[(2S)-2-[3-({5-[7-amino-2-(2-hydroxyphenyl)imidazo[1,2-a]pyrimidin-6-yl]pent-4-yn-1-yl}oxy)-1,2-oxazol-5-yl]-3-methylbutanoyl]-4-hydroxy-N-[(1S)-1-[4-(4-methyl-1,3-thiazol-5-yl)phenyl]ethyl]pyrrolidine-2-carboxamide] | ≥ 30 nM | –
Cc1ncsc1-c1ccc([C@H](C)NC(=O)[C@@H]2C[C@@H](O)CN2C(=O)[C@@H](c2cc(OCCCC#Cc3cn4cc(-c5ccccc5O)nc4nc3N)no2)C(C)C)cc1 [Compound 31, (2S,4R)-1-[(2R)-2-[3-[5-[7-amino-2-(2-hydroxyphenyl)imidazo[1,2-a]pyrimidin-6-yl]pent-4-ynoxy]isoxazole-5-yl]-3-methyl-butanoyl]-4-hydroxy-N-[(1S)-1-[4-(4-methylthiazol-5-yl)phenyl]ethyl]pyrrolidine-2-carboxamide] | ≥ 30 nM | –
CC(C)[C@@H](C(=O)N1C[C@H](O)C[C@H]1C(=O)N[C@@H](C)c1ccc(-c2ccnn2C)cc1)c1cc(N2CCC(CN3CCC(O[C@H]4C[C@H](OCC#Cc5cn6cc(-c7ccccc7O)nc6nc5N)C4)CC3)CC2)no1 [Compound 32] | < 2.5 nM | > 75%
CC(C)[C@@H](C(=O)N1C[C@H](O)C[C@H]1C(=O)N[C@@H](C)c1ccc(-c2ccnn2C)cc1)c1cc(N2CCC(CN3CCC(O[C@H]4C[C@H](C#Cc5cn6cc(-c7ccccc7O)nc6nc5N)C4)CC3)CC2)no1 [Compound 33] | < 2.5 nM | > 75%
Cc1ncsc1-c1ccc([C@H](C)NC(=O)[C@@H]2C[C@@H](O)CN2C(=O)[C@H](c2cc(N3CCC(O[C@H]4C[C@H](OCC#Cc5cn6cc(-c7ccccc7O)nc6nc5N)C4)CC3)no2)C(C)C)cc1 [Compound 34, (2S,4R)-4-hydroxy-N-[(1S)-1-[4-(4-methyl-1,3-thiazol-5-yl)phenyl]ethyl]-1-[(2S)-3-methyl-2-(3-{4-[(1r,3r)-3-({3-[7-amino-2-(2-hydroxyphenyl)imidazo[1,2-a]pyrimidin-6-yl]prop-2-yn-1-yl}oxy)cyclobutoxy]piperidin-1-yl}-1,2-oxazol-5-yl)butanoyl]pyrrolidine-2-carboxamide] | ≥ 30 nM | –
Cc1ncsc1-c1ccc([C@H](C)NC(=O)[C@@H]2C[C@@H](O)CN2C(=O)[C@@H](c2cc(N3CCC(O[C@H]4C[C@H](OCC#Cc5cn6cc(-c7ccccc7O)nc6nc5N)C4)CC3)no2)C(C)C)cc1 [Compound 35, formate] | 2.5 to 10 nM | > 75%
Cc1ncsc1-c1ccc([C@H](C)NC(=O)[C@@H]2C[C@@H](O)CN2C(=O)[C@@H](c2cc(N3CCC(CN4CCC(O[C@H]5C[C@@H](N6CCC(CC#Cc7cn8cc(-c9ccccc9O)nc8nc7N)CC6)C5)CC4)CC3)no2)C(C)C)cc1 [Compound 36, formate] | < 2.5 nM | > 75%
Cc1ncsc1-c1ccc([C@H](C)NC(=O)[C@@H]2C[C@@H](O)CN2C(=O)[C@@H](c2cc(N3CCC(CN4CCC(O[C@H]5C[C@H](N6CCC(CC#Cc7cn8cc(-c9ccccc9O)nc8nc7N)CC6)C5)CC4)CC3)no2)C(C)C)cc1 [Compound 37, (2S,4R)-4-hydroxy-N-[(1S)-1-[4-(4-methyl-1,3-thiazol-5-yl)phenyl]ethyl]-1-[(2R)-3-methyl-2-{3-[4-({4-[(1r,3r)-3-(4-{3-[7-amino-2-(2-hydroxyphenyl)imidazo[1,2-a]pyrimidin-6-yl]prop-2-yn-1-yl}piperidin-1-yl)cyclobutoxy]piperidin-1-yl}methyl)piperidin-1-yl]-1,2-oxazol-5-yl}butanoyl]pyrrolidine-2-carboxamide] | < 2.5 nM | > 75%
Cc1ncsc1-c1ccc([C@H](C)NC(=O)[C@@H]2C[C@@H](O)CN2C(=O)[C@@H](c2cc(N3CCC(CN4CCC(OCCn5cnc(-c6cn7cc(-c8ccccc8O)nc7nc6N)c5)CC4)CC3)no2)C(C)C)cc1 [Compound 38, (2S,4R)-1-[(2R)-2-[3-(4-{[4-(2-{4-[7-amino-2-(2-hydroxyphenyl)imidazo[1,2-a]pyrimidin-6-yl]-1H-imidazol-1-yl}ethoxy)piperidin-1-yl]methyl}piperidin-1-yl)-1,2-oxazol-5-yl]-3-methylbutanoyl]-4-hydroxy-N-[(1S)-1-[4-(4-methyl-1,3-thiazol-5-yl)phenyl]ethyl]pyrrolidine-2-carboxamide] | 2.5 to 10 nM | > 75%
CC(C)[C@@H](C(=O)N1C[C@H](O)C[C@H]1C(=O)N[C@@H](C)c1ccc(-c2c(F)cnn2C)cc1)c1cc(N2CCC(CN3CCC(O[C@H]4C[C@H](C#Cc5cn6cc(-c7ccccc7O)nc6nc5N)C4)CC3)CC2)no1 [Compound 39, (2S,4R)-N-[(1S)-1-[4-(4-fluoro-1-methyl-1H-pyrazol-5-yl)phenyl]ethyl]-4-hydroxy-1-[(2R)-3-methyl-2-{3-[4-({4-[(1r,3r)-3-{2-[7-amino-2-(2-hydroxyphenyl)imidazo[1,2-a]pyrimidin-6-yl]ethynyl}cyclobutoxy]piperidin-1-yl}methyl)piperidin-1-yl]-1,2-oxazol-5-yl}butanoyl]pyrrolidine-2-carboxamide] | < 2.5 nM | > 75%
Cc1cnn(C)c1-c1ccc([C@H](C)NC(=O)[C@@H]2C[C@@H](O)CN2C(=O)[C@@H](c2cc(N3CCC(CN4CCC(O[C@H]5C[C@H](C#Cc6cn7cc(-c8ccccc8O)nc7nc6N)C5)CC4)CC3)no2)C(C)C)cc1 [Compound 40, (2S,4R)-N-[(1S)-1-[4-(1,4-dimethyl-1H-pyrazol-5-yl)phenyl]ethyl]-4-hydroxy-1-[(2R)-3-methyl-2-{3-[4-({4-[(1r,3r)-3-{2-[7-amino-2-(2-hydroxyphenyl)imidazo[1,2-a]pyrimidin-6-yl]ethynyl}cyclobutoxy]piperidin-1-yl}methyl)piperidin-1-yl]-1,2-oxazol-5-yl}butanoyl]pyrrolidine-2-carboxamide] | 2.5 to 10 nM | > 75%
CC(C)[C@@H](C(=O)N1C[C@H](O)C[C@H]1C(=O)N[C@@H](C)c1ccc(-c2ccnn2C)cc1)c1cc(N2CCC(CN3CCC(O[C@H]4C[C@H](n5cc(-c6cn7cc(-c8ccccc8O)nc7nc6N)cn5)C4)CC3)CC2)no1 [Compound 41, (2S,4R)-4-hydroxy-N-[(1S)-1-[4-(1-methyl-1H-pyrazol-5-yl)phenyl]ethyl]-1-[(2R)-3-methyl-2-{3-[4-({4-[(1r,3r)-3-{4-[7-amino-2-(2-hydroxyphenyl)imidazo[1,2-a]pyrimidin-6-yl]-1H-pyrazol-1-yl}cyclobutoxy]piperidin-1-yl}methyl)piperidin-1-yl]-1,2-oxazol-5-yl}butanoyl]pyrrolidine-2-carboxamide] | < 2.5 nM | > 75%
